Legend:
[1] = test system: murine, FLT3L-differentiated cDC1 and cDC2 cells; assay: Flow cytometry of surface markers on murine cDC1 and cDC2; type: cell-based, mouse
Method: Murine FLT3L-differentiated, bone marrow-derived DC (BMDC) generation. Leg femur and tibia were removed from mice, cut with scissors and flushed into sterile tubes. Bone marrow suspension was treated with ACK for 1 minute, then passed through a 40 um cell strainer. Cells were counted and resuspended in media consisting of complete IMDM containing 10% FBS, penicillin and streptomycin, and supplements of L-glutamine and sodium pyruvate (I10). Cells were then plated at 5E6 bone marrow cells per well in a P12 plate. Recombinant mouse FLT3L (Miltenyi) was added to cultures at 200 ng/mL. Differentiated cells were used for subsequent assays on day 9. The efficiency of differentiation was monitored by flow cytometry using BD Symphony A3, and CD11c+MHC-II+ cells were routinely above 80% of living cells. For each experiment, five mice were used to collect BM and to generate DCs.
Murine FLT3L-differentiated BMDC (FLT3L-BMDC) hyperactivation. BMDCs were washed with PBS and re-plated in FLT3L-containing 110 at a concentration of 1.5×10^5 cells/well. Stimuli were added to cultures at indicated concentrations for a final volume of 200 uL/well. Twenty-four hours post-stimulation, cell culture supernatant was collected after centrifugation and stored at −20° C. to measure cytokine secretion. IL-1b, IL-6, IL-12p40, and TNF-alpha ELISA were performed using eBioscience Ready-SET-Go! (now ThermoFisher) ELISA kits according to the manufacturer's protocols. Cell viability was measured using Promega's Cell Titer-Glo reagent kits.
Flow cytometry. After FcR blockade, treated FLT3L-BMDCs were washed and stained in PBS with Live Dead Fixable dye (ThermoFisher) for 20 minutes at 4° C. Cells were then washed again and stained for 20 minutes at 4° C. in MACS buffer (PBS with 1% FCS and 2 mM EDTA) containing the following fluorescently conjugated antibodies purchased from BioLegend: anti-CD11c, anti-I-A/I-E, anti-H-2Kb, anti-SIRPa, anti-CD24, anti-CD40, anti-CD45R, anti-CXCL16 and anti-CCR7. Data were acquired on a BD FACS Symphony (Becton-Dickenson). Data were analyzed using FlowJo software (Tree Star). […]

human naïve CD4+ T cells = assay: Mixed lymphocyte reaction: polarization of naïve CD4 T cells (flow cytometry); type: cell-based
Method: Mixed lymphocyte reaction. Human monocytes were isolated from leukopheresis products using Miltenyi StraightFrom LeukoPak CD14 microbeads as directed by manufacturer. To isolate naïve CD4 T cells, whole blood was diluted with an equal volume of PBS. Diluted blood was layered on top of Ficoll-Paque PLUS solution and spun at 1000 rcf for 20 minutes at room temperature with no brakes. Buffy coat layer was collected, washed, and counted. Miltenyi human naïve CD4 T cell microbead isolation kits were used to isolate cells of interest from the PBMC according to manufacturer's instructions. Collected cells were cryogenically stored in 90% FBS and 10% DMSO.
Monocytes were differentiated into moDC. moDC were counted and plated in U-bottom plates at 2×10^4 cells/well and treated with hyperactivating stimuli or control conditions. After one day of culture, 1×10^5 cells/well naïve CD4 T cells from a different (allogeneic) human donor were thawed and added to the cultures with 100 ng/mL IL-2. Cells were cocultured for 5 days with an IL-2 feed on the third day of coculture. After 5 days, cells were reactivated for four hours using Leukocyte Activation Cocktail with BD GolgiPlug (BD Biosciences). Cells were stained to determine the resulting polarization of activated T cells via flow cytometry. Intracellular staining targets required the use of BD Biosciences Transcription Factor Buffer set to fix and permeabilize cells prior to the intracellular staining step.
Ten moDC donor samples were tested in MLR assay. Staining results were analyzed using FlowJo software, and consistent gating strategies were applied to all samples. Frequency of activated cells was graphed as a percentage of CD4 T cells in each sample. Paired t-tests were used to determine statistical significance.

human moDC = assay: Viability of human moDC with surfactant formulations of 22:0 Lyso PC; type: cell-based; conditions: solvent evaporation method with KP407, filtered, target 82.5 uM + R848
Method: Formulation of 22:0 Lyso PC with poloxamers. […] 22:0 Lyso PC was resuspended in the surfactant solution and agitated at 4° C. for an hour. Solutions were then brought to room temperature to form micelles. Using 10× concentrated PBS, salts were added to the solution to stabilize molecular interactions and provide physiologically relevant osmolarity. Lipid solutions were either left unfiltered or filtered through a pore size of 0.45 um to remove insoluble lipid flakes. Lipids were further diluted and added onto human moDC cell cultures along with 1 ug/mL R848. Targeted lipid concentrations were based on the scenario where the lipid is fully bio-available prior to filtration. However, filtration of insoluble lipid reduces the bio-available supply of lipid. Thus, IL-1beta as a measure of hyperactivity can be used as an indicator of 22:0 Lyso PC incorporation into micelles and thus into solution. One day after hyperactivation, cell culture supernatants are collected to measure cytokine secretion, and cells are used to measure viability via Cell Titer-Glo.
Salts are added to the solution to stabilize the molecular interactions and bring the solution to a physiologically relevant osmolarity. The solutions are then either left unfiltered or filtered through a pore size of 0.45 um to remove insoluble lipid flakes or particle aggregates. […]

[2] = moDC treated with R848 + 22:0 LPC

CCCCCCCCCCCCCCCCCCCCCC(=O)OC[C@@H](O)COP(=O)([O-])OCC[N+](C)(C)C [22:0 LYSO PC, 1-behenoyl-2-hydroxy-sn-glycero-3-phosphocholine]
CD40 expression (in words) ([1]; R848 + 41 uM lipid in 5% KP407, cDC1 and cDC2): strongly enhanced | MHC class I expression (in words) ([1]; R848 + lipid vs R848 alone): enhanced MHC class I expression on both cDC1 and cDC2 subsets | CCR7 expression (in words) ([1]; cDC1, R848 + lipid in KP407 formulation): increased their CCR7 expression significantly compared to R848 alone | Th2 polarization (Gata3, IL-4) (in words) (human naïve CD4+ T cells; [2]): minimal Th2 polarization occurred | Th17 cells (RORg, IL-17) (in words) (human naïve CD4+ T cells; [2]): not detected | frequency of polyfunctional Th1 cells (IFN-gamma and TNF-alpha) (in words) (human naïve CD4+ T cells; moDC treated with R848 + 22:0 LPC vs R848 alone): increased in frequency | frequency of Th1 cells (in words) (human naïve CD4+ T cells; moDC treated with R848 + 22:0 LPC vs R848 alone, 5 days coculture): increased the frequency of Th1 cells | reduction of cell viability (human moDC): approximately 25%
